Article PMC11596155, “When Chirality Makes the Difference: The Case of Novel Enantiopure N-Heterocyclic Carbene–Gold and –Silver Complexes” (Molecules, 2024)

Assays:
[1] = test system: Staphylococcus aureus (ATCC 23235); test: MIC and MBC by broth dilution, S. aureus; assay type: cell-based; settings: broth dilution, overnight 37 °C
Excerpt: (§1) The bacterial strains used for MIC and MBC value determinations expressed as µg/mL by the broth dilution method, according to CLSI guidelines, were the following: Gram-negative: Escherichia coli (ATCC® 25922TM); Gram-positive: Staphylococcus aureus (ATCC® 23235TM). The MIC represents the lowest concentration of compound able to inhibit the visible microbial growth, expressed in μg/mL, whereas the MBC is the lowest concentration of a given compound that can completely kill the bacteria. Bacteria were grown overnight in LB medium (2%), diluted at a density of […] colony forming units (CFUs/mL), plated in the 96-well microplates to obtain a total inoculum load of ca. 10^5 cells/well and then treated with increasing concentrations of the tested complexes (1, 5, 10, 20, 50, 100, 200 μg/mL). Successively, after incubation at 37 °C overnight, the bacterial growth was monitored at a wavelength of 600 nm using a Multiskan spectrophotometer (Multiskan Ex Microplate model; Thermo Scientific, Nyon, Switzerland). MIC or MBC values were obtained by comparing cell density with a positive control (bacterial cells grown in LB medium were added with only the vehicle, DMSO). The results were representative of three independent experiments performed in triplicate and ampicillin (Sigma Aldrich A9393) was used as the control for strain sensitivity.

[2] = test system: NO production in LPS-stimulated RAW 264.7 macrophages (iNOS); test: Griess assay, NO production in LPS-stimulated RAW 264.7 macrophages; assay type: cell-based, murine; settings: 24 h, LPS 1 µg/mL, RAW 264.7, vs LPS only
Excerpt: Inflammation is an important process, in which the immune system is activated, allowing the protection from infections by eliminating pathogens and promoting repairing phenomena. However, in some cases, the inflammation can become chronic, playing a key role in several diseases, such as cancer, diabetes, autoimmune and neurodegenerative disorders. Moreover, chronic inflammation is characterized by a proliferation of different specialized cells, for instance macrophages, fibroblasts, granulocytes and so on. […] NO is produced by nitric oxide synthases (NOS) isoforms, but under different pro-inflammatory stimuli (cytokines or microbial products) it is massively produced by the inducible NOS (iNOS, NOS2; or type II NOS). iNOS can be also overexpressed in several diseases, producing NO in an unregulated manner and contributing to the disease progression. For these reasons, its inhibition represents a good strategy for the treatment of various diseases related to chronic inflammation, amongst them cancer. The anti-inflammatory activity, in terms of NO production inhibition, of the new synthesized chiral complexes was evaluated by the means of a Griess-based assay. Particularly, the NO production was induced in murine macrophages RAW 264.7 stimulated with bacterial lipopolysaccharide (LPS), then they were exposed to the complexes for 24 h and the released NO was quantified (as detailed in the Section 3). […] Therefore, pro-ligands P1 and P2, as R and S pure enantiomers, were tested. The obtained outcomes are visible in Figure 2 (panels A and B, P1 and P2 series, respectively), where it is possible to notice “at glance” that most of the enantiopure compounds were unable to decrease the NO synthesis, induced by LPS treatment in RAW 264.7 macrophages (see pink bars in the graph), with the exception of (R)-AuL1 and (R)-AuL2. Particularly, (R)-AuL1 was able to decrease, dose-dependently, the NO production of about 23 and 35% at 5 and 10 µM, respectively, whereas the S enantiomer was unable to reduce NO, under the same experimental conditions. […] Furthermore, none of the pro-ligands was found able to decrease NO production. […] Finally, viability assays were performed on RAW 264.7 macrophages, recovered after the Griess test.
Anti-inflammatory activity was tested adopting the Griess assay on RAW 264.7 murine macrophages, by measuring NO production, as reported by. Specifically, RAW 264.7 cells were plated on 48 multi-wells and treated with the tested molecules at the indicated concentrations; lipopolysaccharide (LPS, Sigma Aldrich, Milan, Italy), at a final concentration of 1 µg/mL, was used to induce inflammation and stimulate NO production. After 24 h, the cell medium and Griess reagent were mixed at a 1:1 ratio and left under agitation for 30 min, at room temperature. Then, absorbance was measured at 540 nm, using a multiplate reader. The absorbance obtained allowed to assess the percentage of NO production compared with the positive control, in which the cells have been treated with LPS.
Figure 2 Panel (A), L1 series and panel (B), L2 series. Anti-inflammatory activity (pink bars): NO production was induced in murine macrophages RAW 264.7 treated with LPS (1 µg/mL), in presence or not of the enantiopure complexes and pro-ligands at the indicated concentrations (µM), for 24 h. Indomethacin (Ind) was used as the reference molecule. Data were plotted as % NO inhibition with respect to LPS-only treatment. […]

[3] = test system: Escherichia coli (ATCC 25922); test: MIC and MBC by broth dilution, E. coli; assay type: cell-based; settings: broth dilution, overnight 37 °C
Excerpt: as §1

MCF-10A cells = test: MTT assay, cytotoxicity on normal mammary epithelial cells MCF-10A; assay type: cell-based, human; settings: 72 h; for IC50: normal cells, mean ± SD of three experiments
Method: (§2) All cell lines used for the reported studies were purchased from the American Type Culture Collection (ATCC, Manassas, VA, USA). Human breast cancer cells MCF-7 and MDA-MB-231 were maintained in Dulbecco’s Modified Eagle Medium/Nutrient Mixture F12 Ham (DMEM/F12) supplemented with 5% fetal bovine serum (FBS), 1% L-glutamine and 100 units/mL of penicillin/streptomycin. Human mammary epithelial cells MCF-10A were cultured in DMEM/F12 medium, supplemented with 5% horse serum (HS), 100 units/mL of penicillin/streptomycin, […], 0.02 µg/mL human epidermal growth factor (EGF), 10 µg/mL insulin and […] [34]. The murine macrophages RAW 264.7 were grown in Dulbecco’s Modified Eagle’s Medium (DMEM) high glucose (4.5 g/L), added with 10% fetal bovine serum (FBS), 1% L-glutamine and 100 units/mL of penicillin/streptomycin. Cells were maintained at 37 °C, in a humidified atmosphere containing 5% CO2.
(§3) Cell viability was determined using the 3-(4,5-dimethylthiazol-2-y1)-2,5-diphenyltetrazolium bromide assay (MTT, Sigma-Aldrich, Milan, Italy), as in [35]. Cells were treated for 72 h (anticancer activity) or 24 h (anti-inflammatory activity) at different concentrations and the IC50 values were obtained using GraphPad Prism 9 software (GraphPad Software, La Jolla, CA, USA).

MDA-MB-231 cells = test: MTT assay, anticancer activity, MDA-MB-231; assay type: cell-based, human; settings: 72 h, mean ± SD of three experiments
Method: as §2, §3

MCF-7 cells = test: MTT assay, anticancer activity, MCF-7; assay type: cell-based, human; settings: 72 h, mean ± SD of three experiments
Method: as §2, §3

SMILES	M.B.C. S. aureus [1]	M.I.C. S. aureus [1]	decrease of NO production ([2]; 1 µM)	decrease of NO production ([2]; 5 µM)	M.B.C. E. coli [3]	M.I.C. E. coli [3]	cytotoxicity toward normal MCF-10A cells (in words) (MCF-10A cells)	IC50 (MCF-10A cells)	IC50 (MDA-MB-231 cells)	IC50 (MCF-7 cells)	decrease of NO production ([2]; 10 µM)
CN1C(Cl)=C(Cl)N(C[C@H](O)c2ccccc2)[CH]1[Au-][Cl] (stereo partly drawn) [(R)-AuL2, (4,5-dichloro-1-((R)-2-hydroxy-2-phenylethyl)-3-methyl-2,3-dihydro-1H-imidazol-2-yl)gold(I) chloride]	> 100 µg/mL	75 µg/mL	about 10%	~50%	> 150 µg/mL	75 µg/mL	did not impact	38 ± 2.2 µM	1.2 ± 0.2 µM	2.2 ± 0.2 µM	–
CN1C=CN(C[C@H](O)c2ccccc2)[CH]1[Au-][Cl] (stereo partly drawn) [(R)-AuL1, (1-((R)-2-hydroxy-2-phenylethyl)-3-methyl-2,3-dihydro-1H-imidazol-2-yl)gold(I) chloride]	> 150 µg/mL	25 µg/mL	–	about 23%	> 150 µg/mL	75 µg/mL	–	52.9 ± 2.2 µM	15.3 ± 4.5 µM	16 ± 0.8 µM	~35%
